In ChEMBL document CHEMBL3112555, “Danshen diversity defeating dementia” (Bioorg Med Chem Lett, 2014):

Tests used:
Settings in all cases: in vivo
[1] = Bioavailability in rat at 100 mg/kg, ip; type: ADME, organism-based
[2] = Oral bioavailability in rat at 100 mg/kg; type: ADME, organism-based
[3] = Bioavailability in beagle dog; type: ADME, organism-based, Canis lupus familiaris

bioavailability [3] [%] | Structure (SMILES) | bioavailability [1] [%] | bioavailability [2] [%]
 | C[C@H]1COC2=C1C(=O)C(=O)c1c2ccc2c1CCCC2(C)C [CRYPTOTANSHINONE] | 10.6 | 2.1
1.47 | O=C(/C=C/c1ccc(O)c(O)c1/C=C/c1ccc(O)c(O)c1)O[C@H](Cc1ccc(O)c(O)c1)C(=O)O [SALVIANOLIC ACID A] |  | 
